From the NIST ThermoML archive (doi:10.1021/je060271a)
Values joined by “and” are separate entries in the source; they are usually repeats but may differ in a detail not shown here. Equal values may be shown once. Numbers after ± are expanded uncertainties.

Conditions: Liquid, Vibrating tube method

Compound: CCCCCCC(=O)OCC(COC(=O)CCCCCC)(COC(=O)CCCCCC)COC(=O)CCCCCC [pentaerythritol tetraheptanoate]
- mass density (343.14 K, 22987 kPa): 957 ± 1.2 kg/m3
- mass density (343.14 K, 23023 kPa): 956.9 ± 1.2 kg/m3
- mass density (343.14 K, 23067 kPa): 956.9 ± 1.2 kg/m3
- mass density (343.14 K, 23104 kPa): 956.9 ± 1.2 kg/m3
- mass density (343.14 K, 23148 kPa): 957 ± 1.2 kg/m3
- mass density (343.14 K, 23186 kPa): 957 ± 1.2 kg/m3
- mass density (343.14 K, 23224 kPa): 956.9 ± 1.2 kg/m3
- mass density (343.14 K, 23269 kPa): 957.1 ± 1.2 kg/m3
- mass density (343.14 K, 23308 kPa): 957.1 ± 1.2 kg/m3
- mass density (343.14 K, 23346 kPa): 957.1 ± 1.2 kg/m3
- mass density (343.14 K, 23393 kPa): 957.2 ± 1.2 kg/m3
- mass density (343.14 K, 23433 kPa): 957.2 ± 1.2 kg/m3
- mass density (343.14 K, 23473 kPa): 957.2 ± 1.2 kg/m3
- mass density (343.14 K, 23512 kPa): 957.2 ± 1.2 kg/m3
- mass density (343.14 K, 23551 kPa): 957.3 ± 1.2 kg/m3
- mass density (343.14 K, 23582 kPa): 957.3 ± 1.2 kg/m3
- mass density (343.14 K, 23619 kPa): 957.3 ± 1.2 kg/m3
- mass density (343.14 K, 23650 kPa): 957.2 ± 1.2 kg/m3
- mass density (343.14 K, 23719 kPa): 957.3 ± 1.2 kg/m3
- mass density (343.14 K, 23782 kPa): 957.3 ± 1.2 kg/m3
- mass density (343.14 K, 23820 kPa): 957.3 ± 1.2 kg/m3
- mass density (343.14 K, 23852 kPa): 957.4 ± 1.2 kg/m3
- mass density (343.14 K, 23887 kPa): 957.4 ± 1.2 kg/m3
- mass density (343.14 K, 23919 kPa): 957.4 ± 1.2 kg/m3
- mass density (343.14 K, 23957 kPa): 957.4 ± 1.2 kg/m3
- mass density (343.14 K, 23990 kPa): 957.4 ± 1.2 kg/m3
- mass density (343.14 K, 24022 kPa): 957.6 ± 1.2 kg/m3
- mass density (343.14 K, 24061 kPa): 957.7 ± 1.2 kg/m3
- mass density (343.14 K, 24094 kPa): 957.5 ± 1.2 kg/m3
- mass density (343.14 K, 24160 kPa): 957.5 ± 1.2 kg/m3
- mass density (343.14 K, 24588 kPa): 957.9 ± 1.2 kg/m3
- mass density (343.14 K, 24654 kPa): 957.9 ± 1.2 kg/m3
- mass density (343.14 K, 24695 kPa): 958 ± 1.2 kg/m3
- mass density (343.14 K, 24730 kPa): 958.1 ± 1.2 kg/m3
- mass density (343.14 K, 24765 kPa): 958 ± 1.2 kg/m3
- mass density (343.14 K, 24806 kPa): 958 ± 1.2 kg/m3
- mass density (343.14 K, 24840 kPa): 958.1 ± 1.2 kg/m3
- mass density (343.14 K, 25030 kPa): 958.1 ± 1.2 kg/m3
- mass density (343.14 K, 25067 kPa): 958.2 ± 1.2 kg/m3
- mass density (343.14 K, 25103 kPa): 958.2 ± 1.2 kg/m3
- mass density (343.14 K, 25183 kPa): 958.1 ± 1.2 kg/m3
- mass density (343.14 K, 25215 kPa): 958.2 ± 1.2 kg/m3
- mass density (343.14 K, 25436 kPa): 958.5 ± 1.2 kg/m3
- mass density (343.14 K, 25465 kPa): 958.5 ± 1.2 kg/m3
- mass density (343.14 K, 25501 kPa): 958.5 ± 1.2 kg/m3
- mass density (343.14 K, 26973 kPa): 959.4 ± 1.2 kg/m3
- mass density (343.14 K, 27040 kPa): 959.4 ± 1.2 kg/m3
- mass density (343.14 K, 27491 kPa): 959.6 ± 1.2 kg/m3
- mass density (343.14 K, 27527 kPa): 959.7 ± 1.2 kg/m3
- mass density (343.14 K, 27558 kPa): 959.9 ± 1.2 kg/m3
- mass density (343.14 K, 27645 kPa): 960 ± 1.2 kg/m3
- mass density (343.14 K, 27672 kPa): 959.9 ± 1.2 kg/m3
- mass density (343.14 K, 27705 kPa): 959.9 ± 1.2 kg/m3
- mass density (343.14 K, 27733 kPa): 959.9 ± 1.2 kg/m3
- mass density (343.14 K, 27761 kPa): 959.9 ± 1.2 kg/m3
- mass density (343.14 K, 27793 kPa): 959.9 ± 1.2 kg/m3
- mass density (343.14 K, 27821 kPa): 959.9 ± 1.2 kg/m3
- mass density (343.14 K, 27849 kPa): 960 ± 1.2 kg/m3
- mass density (343.14 K, 27937 kPa): 960.1 ± 1.2 kg/m3
- mass density (343.14 K, 27971 kPa): 960.1 ± 1.2 kg/m3
- mass density (343.14 K, 27998 kPa): 960 ± 1.2 kg/m3
- mass density (343.14 K, 28026 kPa): 960 ± 1.2 kg/m3
- mass density (343.14 K, 28060 kPa): 960 ± 1.2 kg/m3
- mass density (343.14 K, 28670 kPa): 960.5 ± 1.2 kg/m3
- mass density (343.14 K, 28700 kPa): 960.4 ± 1.2 kg/m3
- mass density (343.14 K, 29403 kPa): 960.9 ± 1.2 kg/m3
- mass density (343.14 K, 33157 kPa): 963.2 ± 1.2 kg/m3
- mass density (343.14 K, 33197 kPa): 963.3 ± 1.2 kg/m3
- mass density (343.14 K, 33238 kPa): 963.2 ± 1.2 kg/m3
- mass density (343.14 K, 33290 kPa): 963.2 ± 1.2 kg/m3
- mass density (343.14 K, 33322 kPa): 963.3 ± 1.2 kg/m3
- mass density (343.14 K, 33371 kPa): 963.3 ± 1.2 kg/m3
- mass density (343.14 K, 33412 kPa): 963.3 ± 1.2 kg/m3
- mass density (343.14 K, 33461 kPa): 963.4 ± 1.2 kg/m3
- mass density (343.14 K, 33503 kPa): 963.4 ± 1.2 kg/m3
- mass density (343.14 K, 33545 kPa): 963.5 ± 1.2 kg/m3
- mass density (343.14 K, 33586 kPa): 963.4 ± 1.2 kg/m3
- mass density (343.14 K, 33637 kPa): 963.5 ± 1.2 kg/m3
- mass density (343.14 K, 33678 kPa): 963.7 ± 1.2 kg/m3
- mass density (343.14 K, 33906 kPa): 963.6 ± 1.2 kg/m3
- mass density (343.15 K, 100.4 kPa): 940.6 ± 1.1 kg/m3
- mass density (343.15 K, 100.5 kPa): 940.6 ± 1.1 kg/m3
- mass density (343.15 K, 100.7 kPa): 940.6 ± 1.1 kg/m3
- mass density (343.15 K, 100.9 kPa): 940.6 ± 1.1 kg/m3
- mass density (343.15 K, 102.6 kPa): 940.6 ± 1.1 kg/m3
- mass density (343.15 K, 106.3 kPa): 940.6 ± 1.1 kg/m3
- mass density (343.15 K, 108.5 kPa): 940.6 ± 1.1 kg/m3
- mass density (343.15 K, 111.8 kPa): 940.7 ± 1.1 kg/m3
- mass density (343.15 K, 116.3 kPa): 940.7 ± 1.1 kg/m3
- mass density (343.15 K, 119.8 kPa): 940.6 ± 1.1 kg/m3
- mass density (343.15 K, 124 kPa): 940.5 ± 1.1 kg/m3
- mass density (343.15 K, 126.8 kPa): 940.6 ± 1.1 kg/m3
- mass density (343.15 K, 129.2 kPa): 940.5 ± 1.2 kg/m3
- mass density (343.15 K, 131.6 kPa): 940.6 ± 1.1 kg/m3
- mass density (343.15 K, 133.4 kPa): 940.7 ± 1.1 kg/m3
- mass density (343.15 K, 134.8 kPa): 940.8 ± 1.1 kg/m3
- mass density (343.15 K, 135.3 kPa): 940.7 ± 1.1 kg/m3
- mass density (343.15 K, 136.2 kPa): 940.6 ± 1.1 kg/m3
- mass density (343.15 K, 136.7 kPa): 940.6 ± 1.1 kg/m3
- mass density (343.15 K, 137.7 kPa): 940.7 ± 1.1 kg/m3
- mass density (343.15 K, 138.6 kPa): 940.7 ± 1.1 kg/m3
- mass density (343.15 K, 139.6 kPa): 940.7 ± 1.1 kg/m3
- mass density (343.15 K, 140.5 kPa): 940.6 ± 1.1 kg/m3
- mass density (343.15 K, 140.7 kPa): 940.8 ± 1.1 kg/m3 and 940.7 ± 1.1 kg/m3
- mass density (343.15 K, 140.8 kPa): 940.6 ± 1.1 kg/m3
- mass density (343.15 K, 141 kPa): 940.7 ± 1.1 kg/m3
- mass density (343.15 K, 141.2 kPa): 940.6 ± 1.1 kg/m3
- mass density (343.15 K, 141.5 kPa): 940.6 ± 1.1 kg/m3
- mass density (343.15 K, 141.9 kPa): 940.7 ± 1.1 kg/m3
- mass density (343.15 K, 142.4 kPa): 940.7 ± 1.1 kg/m3
- mass density (343.15 K, 142.9 kPa): 940.6 ± 1.1 kg/m3
- mass density (343.15 K, 143.1 kPa): 940.6 ± 1.1 kg/m3 and 940.7 ± 1.1 kg/m3
